In the oligonucleotide strings, read from the 5' end, every base follows the letter of its sugar. An asterisk marks phosphorothioate; unmarked linkages are phosphodiester. Other units and linkages are bracketed, terminal groups are in braces. A string of capitals states the bases alone. e = 2'-O-(2-methoxyethyl) (MOE); [5mC] = 5-methylcytosine; d = 2'-deoxy (DNA)
Test system: human Factor 7 mRNA
Assay: Antisense inhibition of human Factor 7 mRNA in HepB3 cells, lipofectin, 50 nM, real-time RT-PCR
Assay type: cell-based
Conditions: for % Inhibition (human Factor 7 mRNA): 50 nM, ~24 h
Method in brief: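 4,000 cells/well; ~24 h exposure; RNA isolated; probe set RTS 2927; normalised to RIBOGREEN® total RNA; % inhibition vs untreated.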

[1] = HepB3 cells, gapmers (5-10-5, 3-14-3, 2-13-5 MOE) targeted to nucleobases 4868 to 4899 of SEQ ID NO: 1
[2] = HepB3 cells, gapmers targeted to nucleobases 13760 to 13789 of SEQ ID NO: 1 (Table 10)
[3] = Example 1, HepB3 cells, lipofectin, relative to untreated control cells
[4] = Example 4, HepB3 cells, lipofectin, relative to untreated control
[5] = HepB3 cells, lipofectin, 50 nM antisense oligonucleotide, approximately 24 hours, primer probe set RTS 2927, relative to untreated control
[6] = Example 6 microwalk, nucleobases 15098 to 15122 of SEQ ID NO: 1, HepB3, lipofectin

Substance: 422300 (antisense eG*eA*dG*d[5mC]*d[5mC]*d[5mC]*dG*dA*dG*dT*dT*d[5mC]*dT*dG*d[5mC]*eA*eG*eG*eA*eG) [compound 422300]
- % Inhibition of human Factor 7 mRNA levels [1]: 65%

Substance: 422256 (antisense e[5mC]*eA*d[5mC]*d[5mC]*d[5mC]*dG*d[5mC]*d[5mC]*dG*dG*d[5mC]*dT*d[5mC]*dT*dG*e[5mC]*eT*e[5mC]*eA*eT) [compound 422256]
- % Inhibition of human Factor 7 mRNA levels [2]: 29%

Substance: 407932 (antisense eG*eA*eA*e[5mC]*e[5mC]*dA*dG*dA*dA*dA*dA*dG*dT*dG*dA*eG*eA*eG*e[5mC]*eT) [compound 407932]
- % Inhibition (human Factor 7 mRNA) [3]: 55%

Substance: 422186 (antisense eG*eG*eA*dA*dG*dA*dA*dG*dG*dG*dA*d[5mC]*dG*dG*dA*dA*dG*eG*eT*eG) [compound 422186]
- % Inhibition (human Factor 7 mRNA) [4]: 14%

Substance: 416528 (antisense eT*eG*eA*eT*eA*dA*dA*dA*d[5mC]*d[5mC]*dT*d[5mC]*dT*dG*dG*eA*e[5mC]*eA*e[5mC]*e[5mC]) [compound 416528]
- % Inhibition of human Factor 7 mRNA levels [5]: 10%

Substance: 416526 (antisense eT*eG*eT*e[5mC]*e[5mC]*dA*d[5mC]*dA*dT*dG*dA*d[5mC]*d[5mC]*d[5mC]*d[5mC]*eA*e[5mC]*eA*eG*eG) [compound 416526]
- % Inhibition of human Factor 7 mRNA levels [5]: 19%

Substance: 407625 (antisense eT*eT*eG*eT*e[5mC]*dG*dA*dA*dA*d[5mC]*dA*dG*dT*dG*dG*eG*e[5mC]*e[5mC]*eG*e[5mC]) [compound 407625]
- % Inhibition (human Factor 7 mRNA) [3]: 100%

Substance: 422302 (antisense eA*eG*dG*dA*dG*d[5mC]*d[5mC]*d[5mC]*dG*dA*dG*dT*dT*d[5mC]*dT*eG*e[5mC]*eA*eG*eG) [compound 422302]
- % Inhibition of human Factor 7 mRNA levels [1]: 67%

Substance: 407621 (antisense eA*e[5mC]*eA*eA*e[5mC]*dA*dG*dG*dA*d[5mC]*d[5mC]*dT*dG*d[5mC]*d[5mC]*eA*eT*eG*eG*eA) [compound 407621]
- % Inhibition (human Factor 7 mRNA) [3]: 62%

Substance: 422153 (antisense e[5mC]*eA*eT*dG*d[5mC]*dA*dT*dG*dG*dT*dG*dA*dT*dG*d[5mC]*dT*dT*e[5mC]*eT*eG) [compound 422153]
- % Inhibition of human Factor 7 mRNA levels (HepB3 cells, gapmers targeted to nucleobases 15188 to 15211 of SEQ ID NO: 1 (Table 13)): 67%

Substance: 416431 (antisense eA*eG*eG*eG*eA*dG*d[5mC]*d[5mC]*d[5mC]*dG*dG*d[5mC]*d[5mC]*dG*d[5mC]*eA*eG*e[5mC]*eT*e[5mC]) [compound 416431]
- % Inhibition of human Factor 7 mRNA levels [5]: 25%

Substance: 407904 (antisense eG*eA*eA*eA*e[5mC]*dA*dG*dT*dG*dG*dG*d[5mC]*d[5mC]*dG*d[5mC]*eG*eG*eA*eG*eA) [compound 407904]
- % Inhibition (human Factor 7 mRNA) [3]: 83%

Substance: 422287 (antisense e[5mC]*eA*dG*d[5mC]*dA*d[5mC]*dA*d[5mC]*dA*dT*dG*dG*dA*dG*dT*e[5mC]*eA*eG*e[5mC]*eA) [compound 422287]
- % Inhibition (human Factor 7 mRNA) [6]: 41%

Substance: 416519 (antisense eA*eA*eA*eT*eA*dT*dG*dG*dG*dA*d[5mC]*d[5mC]*d[5mC]*dA*dA*eA*eG*eT*eG*eG) [compound 416519]
- % Inhibition of human Factor 7 mRNA levels [5]: 9%

Substance: 407654 (antisense e[5mC]*e[5mC]*eA*e[5mC]*eT*dG*d[5mC]*dA*dG*d[5mC]*d[5mC]*dA*dG*dG*dG*e[5mC]*e[5mC]*eT*eG*eG) [compound 407654]
- % Inhibition (human Factor 7 mRNA) [3]: 34%

Substance: 416428 (antisense e[5mC]*eT*eG*eG*eG*dT*dT*dA*d[5mC]*dG*dA*dA*dG*dA*d[5mC]*eT*eG*e[5mC]*eA*eG) [compound 416428]
- % Inhibition of human Factor 7 mRNA levels [5]: 11%

Substance: 407638 (antisense eG*e[5mC]*e[5mC]*eA*e[5mC]*dT*d[5mC]*dG*dA*dT*dG*dT*dA*d[5mC]*dT*eG*eG*eG*eA*eG) [compound 407638]
- % Inhibition (human Factor 7 mRNA) [3]: 0%

Substance: 407915 (antisense eG*eT*eT*eG*e[5mC]*dG*d[5mC]*dA*dG*d[5mC]*d[5mC]*d[5mC]*dT*dG*dG*e[5mC]*e[5mC]*e[5mC]*e[5mC]*eA) [compound 407915]
- % Inhibition (human Factor 7 mRNA) [3]: 83%

Substance: 416512 (antisense eG*eA*e[5mC]*eG*eA*d[5mC]*d[5mC]*dT*dT*dT*dG*d[5mC]*dT*dG*dG*eG*eA*eG*eG*eA) [compound 416512]
- % Inhibition of human Factor 7 mRNA levels [5]: 43%

Substance: 422126 (antisense eA*e[5mC]*eT*eG*eA*dG*d[5mC]*dG*d[5mC]*dG*dG*dA*dA*dG*dA*eA*eG*eG*eG*eA) [compound 422126]
- % Inhibition (human Factor 7 mRNA) [4]: 22%

Substance: 416546 (antisense e[5mC]*e[5mC]*eA*eG*eG*d[5mC]*dT*dG*dG*dT*dT*dT*dG*dG*dA*eG*eA*eA*eA*e[5mC]) [compound 416546]
- % Inhibition of human Factor 7 mRNA levels [5]: 21%

Substance: 416529 (antisense eG*eG*eG*e[5mC]*eT*dG*dA*dG*dA*d[5mC]*dT*dG*dA*dG*dG*eT*e[5mC]*eA*eG*e[5mC]) [compound 416529]
- % Inhibition of human Factor 7 mRNA levels [5]: 18%

Substance: 422268 (antisense eA*eG*d[5mC]*dG*d[5mC]*dG*dG*dA*dA*dG*dA*dA*dG*dG*dG*eA*e[5mC]*eG*eG*eA) [compound 422268]
- % Inhibition (human Factor 7 mRNA) [4]: 63%

Substance: 407595 (antisense eT*e[5mC]*e[5mC]*eT*eG*dA*dG*dG*d[5mC]*d[5mC]*dT*dT*dA*dG*d[5mC]*eG*eA*e[5mC]*e[5mC]*e[5mC]) [compound 407595]
- % Inhibition (human Factor 7 mRNA) [3]: 71%

Substance: 422271 (antisense e[5mC]*eT*dG*dA*dG*d[5mC]*dG*d[5mC]*dG*dG*dA*dA*dG*dA*dA*eG*eG*eG*eA*e[5mC]) [compound 422271]
- % Inhibition (human Factor 7 mRNA) [4]: 32%

Substance: 416562 (antisense eA*eA*eA*eG*e[5mC]*dA*dG*dA*dG*d[5mC]*d[5mC]*dA*dG*d[5mC]*dT*e[5mC]*eT*eG*eA*e[5mC]) [compound 416562]
- % Inhibition of human Factor 7 mRNA levels [5]: 12%

Substance: 416548 (antisense eA*eG*eG*eT*eG*dA*dA*dT*dG*dA*dA*dA*dT*dT*d[5mC]*eT*eA*e[5mC]*e[5mC]*eT) [compound 416548]
- % Inhibition of human Factor 7 mRNA levels [5]: 29%

Substance: 416499 (antisense eG*eA*eG*eA*eG*d[5mC]*dT*dG*d[5mC]*dA*d[5mC]*d[5mC]*dT*dG*dG*e[5mC]*e[5mC]*eG*eG*e[5mC]) [compound 416499]
- % Inhibition of human Factor 7 mRNA levels [5]: 7%

Substance: 416537 (antisense eT*eG*eA*e[5mC]*e[5mC]*dA*d[5mC]*dT*d[5mC]*dT*dT*d[5mC]*d[5mC]*dG*dA*eG*e[5mC]*eA*eG*e[5mC]) [compound 416537]
- % Inhibition of human Factor 7 mRNA levels [5]: 55%

Substance: 422138 (antisense eT*e[5mC]*eT*eG*e[5mC]*dA*dG*dG*dA*dG*d[5mC]*dG*dG*d[5mC]*d[5mC]*eT*eA*eA*eA*eT) [compound 422138]
- % Inhibition of human Factor 7 mRNA levels [1]: 70%

Substance: 416521 (antisense e[5mC]*eA*e[5mC]*e[5mC]*e[5mC]*d[5mC]*dA*d[5mC]*d[5mC]*dA*dG*dG*dT*dT*dG*eT*eG*e[5mC]*eA*e[5mC]) [compound 416521]
- % Inhibition of human Factor 7 mRNA levels [5]: 36%

Substance: 416513 (antisense e[5mC]*eT*eG*eA*eT*dG*dT*dG*dA*dA*dA*dA*d[5mC]*d[5mC]*dG*eG*e[5mC]*eA*eT*eG) [compound 416513]
- % Inhibition of human Factor 7 mRNA levels [5]: 37%

Substance: 422134 (antisense eG*e[5mC]*eA*e[5mC]*eA*d[5mC]*dA*dT*dG*dG*dA*dG*dT*d[5mC]*dA*eG*e[5mC]*eA*eT*e[5mC]) [compound 422134]
- % Inhibition (human Factor 7 mRNA) [6]: 67%

Substance: 416532 (antisense eG*eG*eA*e[5mC]*e[5mC]*d[5mC]*dA*dG*dA*dT*dG*dA*d[5mC]*d[5mC]*dA*eG*e[5mC]*eA*eG*eG) [compound 416532]
- % Inhibition of human Factor 7 mRNA levels [5]: 12%

Substance: 422174 (antisense eG*e[5mC]*eT*dG*dG*d[5mC]*dT*dG*dA*dG*dG*dA*dG*dA*d[5mC]*dA*dA*eT*eG*eG) [compound 422174]
- % Inhibition of human Factor 7 mRNA levels (HepB3 cells, gapmers targeted to nucleobases 11830 to 11869 of SEQ ID NO: 1 (Table 9)): 55%

Substance: 416453 (antisense eG*eA*eT*eT*eT*dT*dG*dT*d[5mC]*dG*dA*dA*dA*d[5mC]*dA*eG*eT*eG*eG*eG) [compound 416453]
- % Inhibition of human Factor 7 mRNA levels [5]: 45%

Substance: 416430 (antisense eG*e[5mC]*eA*eG*e[5mC]*dT*d[5mC]*d[5mC]*dT*d[5mC]*d[5mC]*dA*dG*dG*dA*eA*e[5mC]*eG*e[5mC]*eG) [compound 416430]
- % Inhibition of human Factor 7 mRNA levels [5]: 52%

Substance: 407612 (antisense eA*eG*eA*eT*e[5mC]*dA*dG*d[5mC]*dT*dG*dG*dT*d[5mC]*dA*dT*e[5mC]*e[5mC]*eT*eT*eG) [compound 407612]
- % Inhibition (human Factor 7 mRNA) [3]: 82%

Substance: 422208 (antisense eG*e[5mC]*eA*d[5mC]*dA*d[5mC]*dA*dT*dG*dG*dA*dG*dT*d[5mC]*dA*dG*d[5mC]*eA*eT*e[5mC]) [compound 422208]
- % Inhibition (human Factor 7 mRNA) [6]: 56%

Substance: 407659 (antisense eG*eA*eT*eG*eG*d[5mC]*dA*dT*d[5mC]*dG*dA*dG*dT*d[5mC]*d[5mC]*eA*e[5mC]*eT*e[5mC]*eT) [compound 407659]
- % Inhibition (human Factor 7 mRNA) [3]: 55%

Substance: 422112 (antisense e[5mC]*e[5mC]*eA*e[5mC]*e[5mC]*d[5mC]*dG*d[5mC]*d[5mC]*dG*dG*d[5mC]*dT*d[5mC]*dT*eG*e[5mC]*eT*e[5mC]*eA) [compound 422112]
- % Inhibition of human Factor 7 mRNA levels [2]: 61%

Substance: 416445 (antisense eT*eA*e[5mC]*eT*eG*d[5mC]*dT*d[5mC]*dA*d[5mC]*dA*dG*d[5mC]*d[5mC]*dG*e[5mC]*e[5mC]*eG*eT*eT) [compound 416445]
- % Inhibition of human Factor 7 mRNA levels [5]: 57%

— patent US20120214862A1, “MODULATION OF FACTOR 7 EXPRESSION” (ISIS Pharmaceuticals, Inc., priority 2009, published 2012)
